Experimental findings from US20250376662A1, “FORWARD PROGRAMMED BLOOD-BRAIN BARRIER MODEL” (priority 2024, published 2025) are described below.

This experiment has as its system HUVECs. The experiment can be described thus: Gene expression in HUVECs treated with KLF2 lentivirus and CHIR99021. It is filed as cell-based, human. On the procedure:
RNA was extracted using Direct-zol RNA Miniprep kit (Zymo, R2050). Reverse transcription was performed to obtain cDNA using GoScript Reverse Transcriptase with Oligo (dT) kit (Promega, A2791). Real-time gene expression analysis was conducted using 25-μl reactions containing SYBR Green PCR Master Mix (Life Technologies, 4309155) along with primers specific for gene of interests (Table 2). PCR was run according to manufacturer protocols on Agilent AriaMX Real-Time PCR system.
Recognizing the strong effect of KLF2 or KLF4 overexpression on BBB gene expression, explored whether activated Wnt signaling impacted the ability of KLF overexpression to modulate BBB gene expression. […] This finding indicates a synergistic effect of these two pathways in inducing BBB gene expression. […] Such shifts in Wnt TF expression have been reported to be correlated with β-catenin levels, and represents higher canonical Wnt activities (Guo et al. 2021). Thus, to further assess the canonical Wnt signaling activation, we used an hPSC Wnt reporter line, H9 7TGP. The engineered 7TGP line expresses GFP under the control of a consensus TCF/LEF binding sequence promoter that reports canonical Wnt/β-catenin signaling activation (Lian et al. 2012; Fuerer and Nusse 2010). […] To assess whether these factors induce BBB gene expression in primary EC, we treated.

With `Cc1c[nH]c(-c2cnc(NCCNc3ccc(C#N)cn3)nc2-c2ccc(Cl)cc2Cl)n1` [CHIR99021], the “expression of Wnt signaling TF transcripts LEF1 and TCF7” value is listed as “significantly increased the expression”.
